Data published in article PMC8245078, “Development of novel benzofuran-isatin conjugates as potential antiproliferative agents with apoptosis inducing mechanism in Colon cancer” (Journal of Enzyme Inhibition and Medicinal Chemistry, 2021).

Experiments:
[1] = tested on: T-47D; assay type: cell-based; conditions: Homo sapiens, T47D, five-dose test
[2] = tested on: Melanoma subpanel; assay type: cell-based, human
[3] = tested on: NCI/ADR-RES; assay type: cell-based; conditions: Homo sapiens, five-dose test
[4] = tested on: CNS Cancer subpanel; assay type: cell-based, human
[5] = tested on: Renal Cancer subpanel; assay type: cell-based, human
[6] = tested on: OVCAR-3; assay type: cell-based; conditions: Homo sapiens; OVCAR-3, five-dose test
[7] = tested on: SNB-75; assay type: cell-based; conditions: SNB-75, five-dose test
[8] = tested on: MDA-MB-231/ATCC; assay type: cell-based; conditions: five-dose test
[9] = tested on: 786-0; assay type: cell-based, human; conditions: 786-0, five-dose test
[10] = tested on: SN12C; assay type: cell-based; conditions: five-dose test
[11] = tested on: SW-620; assay type: cell-based; conditions: SW-620, five-dose test
[12] = tested on: MALME-3M; assay type: cell-based, human; conditions: five-dose test
[13] = tested on: U251; assay type: cell-based, human; conditions: U251, five-dose test
[14] = tested on: SF-268; assay type: cell-based; conditions: SF-268, five-dose test
[15] = tested on: CCRF-CEM; assay type: cell-based; conditions: five-dose test
[16] = tested on: A498; assay type: cell-based, human; conditions: A498, five-dose test
[17] = tested on: SR; assay type: cell-based; conditions: five-dose test
[18] = tested on: IGROV1; assay type: cell-based; conditions: Homo sapiens, IGROV-1; IGROV1, five-dose test
[19] = tested on: SNB-19; assay type: cell-based; conditions: SNB-19, five-dose test
[20] = tested on: HOP-92; assay type: cell-based, human; conditions: HOP-92, five-dose test
[21] = tested on: EKVX; assay type: cell-based; conditions: five-dose test
[22] = tested on: UACC-62; assay type: cell-based; conditions: UACC-62, five-dose test
[23] = tested on: HCT-116; assay type: cell-based; conditions: Homo sapiens; HCT-116, five-dose test
[24] = tested on: MCF7; assay type: cell-based; conditions: MCF7, five-dose test
[25] = tested on: UACC-257; assay type: cell-based; conditions: UACC-257, five-dose test
[26] = tested on: non-small cell lung cancer subpanel; assay type: cell-based, human
[27] = tested on: ACHN; assay type: cell-based; conditions: Homo sapiens, five-dose test
[28] = tested on: HS 578 T; assay type: cell-based; conditions: five-dose test
[29] = tested on: HL60(TB); assay type: cell-based
[30] = tested on: MDA-MB-468
[31] = tested on: MOLT-4; assay type: cell-based; conditions: MOLT-4, five-dose test
[32] = tested on: TK-10; assay type: cell-based, human; conditions: TK-10, five-dose test
[33] = tested on: HT29; assay type: cell-based; conditions: Homo sapiens, HT-29; HT29, five-dose test; read-out: LC50 (the source's name)
[34] = tested on: CAKI-1; assay type: cell-based, human; conditions: CAKI-1, five-dose test
[35] = Homo sapiens, read-out: LC50 (the source's name)

With `COc1ccc2c(c1)/C(=N/NC(=O)c1oc3ccccc3c1C)C(=O)N2` [Compound 5d] the GI50 [1] was 1.7 µM, the LC50 [1] was > 100 µM and the GI50 ([2]; Homo sapiens, Melanoma subpanel, read-out: MG-MID (GI50 average of the subpanel)) was 3.18 µM. The Selectivity index ([2]; full panel MID / subpanel MID, Melanoma) was 0.78, the GI50 [3] was 2.47 µM and the LC50 [3] was > 100 µM. The GI50 ([4]; Homo sapiens, CNS Cancer subpanel, read-out: MG-MID (GI50 average of the subpanel)) was 2.6 µM, the Selectivity index ([4]; full panel MID / subpanel MID, CNS Cancer) was 0.96 and the GI50 ([5]; Homo sapiens, Renal Cancer subpanel, read-out: MG-MID (GI50 average of the subpanel)) was 1.98 µM. The Selectivity index ([5]; full panel MID / subpanel MID, Renal Cancer) was 1.26, the GI50 [6] was 1.84 µM and the GI50 ([7]; Homo sapiens) was 1.25 µM. It also gave a CC50 [7, 35] of 6.04 µM, a TGI [7] of 2.75 µM and a GI50 ([8]; Homo sapiens) of 2.07 µM. The CC50 [8, 35] was > 100 µM, the TGI [8] was 5.10 µM and the TGI [9] was 3.84 µM. The GI50 ([9]; Homo sapiens) was 1.99 µM, the GI50 ([10]; Homo sapiens) was 2.82 µM and the CC50 [10, 35] was > 100 µM. For the same compound, the TGI [10] was >100 µM, the CC50 [11, 35] was > 100 µM and the TGI [11] was >100 µM. The GI50 ([12]; Homo sapiens) was 1.81 µM, the TGI [12] was 3.79 µM and the GI50 ([13]; Homo sapiens, U-251) was 2.03 µM. The TGI [13] was 4.26 µM, the GI50 ([14]; Homo sapiens) was 5.18 µM and the CC50 [14, 35] was > 100 µM. The TGI [14] was 56.8 µM, the CC50 [15, 35] was > 100 µM and the TGI [15] was >100 µM. For the same compound, the TGI [16] was 4.04 µM, the GI50 ([16]; Homo sapiens) was 1.63 µM and the CC50 [17, 35] was > 100 µM. The TGI [17] was >100 µM, the GI50 [18] was 2.1 µM and the LC50 [18] was > 100 µM. The GI50 ([19]; Homo sapiens) was 3.45 µM, the CC50 [19, 35] was > 100 µM and the TGI [19] was 16.2 µM. For the same compound, the TGI [20] was 3.98 µM, the GI50 ([20]; Homo sapiens) was 1.84 µM and the GI50 ([21]; Homo sapiens) was 2.94 µM. For the same compound, the LC50 (concentration giving 50% net cell kill) ([21]; Homo sapiens) was > 100 µM, the TGI [21] was >100 µM and the GI50 ([22]; Homo sapiens) was 5.19 µM. The CC50 [22, 35] was > 100 µM, the TGI [22] was >100 µM and the GI50 [23] was 1.92 µM. For the same compound, the CC50 [24, 35] was > 100 µM, the TGI [24] was >100 µM and the LC50 (concentration killing 50% of cells) ([25]; Homo sapiens) was > 100 µM. For the same compound, the TGI [25] was >100 µM, the GI50 ([26]; Homo sapiens, non-small cell lung cancer subpanel, read-out: MG-MID (GI50 average of the subpanel)) was 2.8 µM and the Selectivity index ([26]; full panel MID / subpanel MID, non-small cell lung cancer) was 0.89. The GI50 [27] was 1.77 µM, the GI50 ([28]; Homo sapiens) was 2.41 µM and the LC50 ([28]; Homo sapiens) was > 100 µM. For the same compound, the TGI [28] was 7.72 µM, the GI50 ([29]; Homo sapiens, HL-60, five-dose test) was > 100 µM and the CC50 ([29]; Homo sapiens, HL-60, five-dose test, read-out: LC50 (the source's name)) was > 100 µM. For the same compound, the TGI ([29]; five-dose test) was >100 µM, the GI50 ([30]; Homo sapiens, MDA-MB-468) was 2.6 µM and the CC50 ([30]; Homo sapiens, MDA-MB-468, read-out: LC50) was > 100 µM. The TGI ([30]; MDA-MB-468, five-dose test) was 6.52 µM, the LC50 ([31]; Homo sapiens) was > 100 µM and the TGI [31] was >100 µM. For the same compound, the GI50 ([32]; Homo sapiens) was 2.32 µM, the TGI [32] was 4.02 µM and the CC50 [33] was > 100 µM. The TGI [34] was 3.24 µM and the GI50 ([34]; Homo sapiens) was 1.56 µM.
